Data as given in publication PMC3844181, “Studies of the Interaction between Isoimperatorin and Human Serum Albumin by Multispectroscopic Method: Identification of Possible Binding Site of the Compound Using Esterase Activity of the Protein” (The Scientific World Journal, 2013).
One block for each compound: values may come before it.

Assays:
[1] = molecular target: T1, Human serum albumin (HSA) (Homo sapiens, UniProt P02768); assay: 4-nitrophenyl acetate esterase assay; assay type: biochemical; conditions: 15 μM HSA, 250 μM pNPA, 250 μM compound, site I
T1 construct: gene ALB; mature serum albumin, 585 residues, monomer

[2] = molecular target: T1, Human serum albumin (HSA); assay: intrinsic Trp fluorescence quenching, modified Stern-Volmer plot; assay type: binding; conditions: 298 K, 50 mM phosphate pH 7.5, 3 μM HSA, excitation 295 nm; n = 0.862; site I; double-log
Source text: intrinsic Trp fluorescence quenching, modified Stern-Volmer plot on Human serum albumin (HSA)

[3] = molecular target: T1, Human serum albumin (HSA); assay: ANS fluorescence titration, Scatchard plot; assay type: binding
Source text: ANS fluorescence titration, Scatchard plot on Human serum albumin (HSA)

T1 sequence (P02768 25-609): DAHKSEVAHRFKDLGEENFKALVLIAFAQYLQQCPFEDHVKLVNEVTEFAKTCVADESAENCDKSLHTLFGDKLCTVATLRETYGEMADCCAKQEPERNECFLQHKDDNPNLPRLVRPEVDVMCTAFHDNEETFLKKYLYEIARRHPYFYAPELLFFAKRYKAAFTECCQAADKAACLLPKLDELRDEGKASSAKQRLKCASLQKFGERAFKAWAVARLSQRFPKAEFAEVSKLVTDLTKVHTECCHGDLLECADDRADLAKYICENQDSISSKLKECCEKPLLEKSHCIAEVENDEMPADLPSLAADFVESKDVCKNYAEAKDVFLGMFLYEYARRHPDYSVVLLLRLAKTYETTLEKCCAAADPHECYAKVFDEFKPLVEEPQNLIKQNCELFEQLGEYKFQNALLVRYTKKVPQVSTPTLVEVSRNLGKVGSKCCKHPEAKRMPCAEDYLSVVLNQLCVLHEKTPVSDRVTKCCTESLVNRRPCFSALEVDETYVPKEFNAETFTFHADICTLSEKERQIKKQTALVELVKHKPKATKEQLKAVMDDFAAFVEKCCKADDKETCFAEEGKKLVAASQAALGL

- 10^-5 × K b (M^-1) [2]: (11.02 ± 0.10) × 10^5 M^-1
Structure (SMILES): CC(C)=CCOc1c2ccoc2cc2oc(=O)ccc12 [isoimperatorin, 4-[(3-methyl-2-butenyl)oxy]-7H-furo [3,2-g] [1] benzopyran-7-one]
- inhibition of esterase activity ([1]; competitive): warfarin and indomethacin (as site I marker) and isoimperatorin inhibited competitively the HSA-catalyzed hydrolysis

Structure (SMILES): CC(=O)Oc1ccccc1C(=O)O [aspirin]
- inhibition of esterase activity [1]: isoimperatorin, aspirin, warfarin, indomethacin, and osthole binding sites on the HSA molecule are the same

- Kd [3]: 900 ± 50 nM
Structure (SMILES): O=S(=O)(O)c1cccc2cccc(Nc3ccccc3)c12 [ANS]

Structure (SMILES): COc1ccc2ccc(=O)oc2c1CC=C(C)C [osthole]
- inhibition of esterase activity [1]: isoimperatorin, aspirin, warfarin, indomethacin, and osthole binding sites on the HSA molecule are the same
